# BindingDB's records for doi:10.1016/j.bmcl.2010.12.016 (Amira Pharmaceuticals, 2011)
# Experiment: Antagonist activity against CRTh2 receptor in human eosinophils assessed as cell shape change after 4 hrs by flow cytometry
row,Structure (SMILES),IC50
1,CCOc1ccc(-c2ccc(-c3cc(CC(=O)O)ccc3OC)c(CN(CC)C(=O)C3CC3)c2)cn1 [Sodium [2'-[(cyclopropanecarbonyl-ethyl-amino)-methyl]-4'-(6-ethoxy-pyridin-3-yl)-6-methoxy-biphenyl-3-yl]-acetate],1.7 nM

# Experiment: Antagonist activity against CRTh2 receptor in human eosinophils assessed as cell shape change by flow cytometry
row,Structure (SMILES),IC50
1,CCN(Cc1cc(-c2ccc(F)cn2)ccc1-c1cc(CC(=O)O)ccc1OC)C(=O)C1CC1 [2-(2'-((N-ethylcyclopropanecarboxamido)methyl)-4'-(5-fluoropyridin-2-yl)-6-methoxybiphenyl-3-yl)acetic acid],23 nM
2,CCN(Cc1cc(-c2cnn(C)c2)ccc1-c1cc(CC(=O)O)ccc1OC)C(=O)C1CC1 [2-(2'-((N-ethylcyclopropanecarboxamido)methyl)-6-methoxy-4'-(1-methyl-1H-pyrazol-4-yl)biphenyl-3-yl)acetic acid],4 nM

# The remaining lines, values ahead:
row,IC50,Structure (SMILES)
1,5 nM,CCOc1ccc(-c2ccc(-c3cc(CC(=O)O)ccc3OC)c(CN(CC)C(=O)C3CC3)c2)cn1 [Sodium [2'-[(cyclopropanecarbonyl-ethyl-amino)-methyl]-4'-(6-ethoxy-pyridin-3-yl)-6-methoxy-biphenyl-3-yl]-acetate]
2,18 nM,CCN(Cc1cc(-c2ncc(OC)cn2)ccc1-c1cc(CC(=O)O)ccc1OC)C(=O)C1CC1 [2-(2'-((N-ethylcyclopropanecarboxamido)methyl)-6-methoxy-4'-(5-methoxypyrimidin-2-yl)biphenyl-3-yl)acetic acid]
3,12 nM,CCN(Cc1cc(-c2cnc3ccccc3c2)ccc1-c1cc(CC(=O)O)ccc1OC)C(=O)C1CC1 [2-(2'-((N-ethylcyclopropanecarboxamido)methyl)-6-methoxy-4'-(quinolin-3-yl)biphenyl-3-yl)acetic acid]
